Series [1] deals with HepG2, a human hepatocarcinoma cell line. Kind of series: Exposure of HepG2 cells to carbon tetrachloride, enzyme release into supernatant (hepatotoxicity model). The format is cell-based.
The subject of series [2] is mouse ES cell-derived hepatocytes. Put plainly: In vitro hepatotoxicity model using hepatocytes differentiated from mouse ES cells, enzyme release into supernatant. The format is cell-based. The settings on record: pretreatment 24 hr, 25 μM; 0.6% CCl4 for 180 minutes. Here is the method:
Hepatocytes were differentiated from mouse ES cells and exposed to carbon tetrachloride (0.6%) for 180 minutes in the absence and presence of N-acetylcysteine (NAC), an antioxidant (25 μM). Levels of the following enzymes were determined by biochemical methods: Panel A: SGOT; Panel B: SGPT; Panel C: ALP; and Panel D: LDH.
Mouse ES cells were differentiated into hepatocytes by the formation of EBs in a medium without LIF. After 4 days in suspension, 15-20 EBs were plated onto 35 mm culture dishes pre-coated with 1% matrigel (BD Biosciences, USA), and allowed to differentiate for 20-25 days. Concentration of growth factors, cytokines (e.g., bone morphogenetic proteins (BMP2 and BMP4), hepatocyte growth factor (HGF), acidic-fibroblast growth factor (aFGF), and basic-FGF (bFGF)) and corticosteroids (e.g., dexamethasone) were optimized for hepatic differentiation. The differentiated cells obtained were confirmed to be hepatocytes by checking the positive expression of hepatic markers by RT-PCR and immunocytochemistry. […]
The cell supernatant was used for the determination of SGPT, SGOT, ALP, and LDH levels, per the manufacturer's protocol. […] The samples were analyzed using a Konelab-20i autoanalyser (Thermo Clinical Lab Systems, Finland). The levels were expressed as units/Liter.

For the compound `ClC(Cl)(Cl)Cl` [CCl4, carbon tetrachloride], the “time of maximum release of SGOT, SGPT, ALP and LDH” value in series [1] (0.6% CCl4) was 180 min. Also, the “SGOT, SGPT, ALP and LDH levels (enzyme release, hepatocyte damage)” value in series [1] (0.6% CCl4, exposure 30-240 minutes, cell supernatant) is reported as “time-dependent increases”. For `CC(=O)N[C@@H](CS)C(=O)O` [N-acetylcysteine], the “effect on CCl4-induced increase in release of SGOT, SGPT, ALP and LDH” value in series [2] is “effectively blocked the increase in the release of these enzymes”.
